Measured values as given in patent US5356880A, “Glycyrrhetinic acid derivatives” (priority 1991, dated 1994).
Like-named read-outs stand apart in the source and are kept apart here.

Experiments:
influenza A virus = details: cited from earlier work
influenza B virus = details: cited from earlier work
HSV-1 (Miyama strain) [1] = assay: In vitro antiviral action on cells infected with HSV-1 (Miyama strain), CPE inhibition, TCID50; format: cell-based, Herpes simplex virus type 1; details: read-out: Antiviral Activity (ΔTCID50); for log reduction at 5 µg/mL: 5 μg/ml; for log reduction at 25 µg/mL: 25 μg/ml
GMK cells [2] = test system: GMK cells
HSV (UV-238 Strain) = assay: Action on HSV (UV-238 strain), CPE inhibition, TCID50; format: cell-based; details: read-out: Antiviral Activity (ΔTCID50); for log reduction at 1 µg/mL: 1 μg/ml; for log reduction at 5 µg/mL: 5 μg/ml; for log reduction at 25 µg/mL: 25 μg/ml
GMK cells [3] = assay: Cytotoxicity (HSV UV-238 strain test), microscopic
HSV-1 (Miyama strain) [4] = assay: In vivo antiviral action: prolongation of life of mice infected with HSV-1; parameters: species or system BALB/c male mice; details: abdominal route, once a day, control 6.1 ± 0.6
Text: BALB/c male mice of three weeks old, 10 for each group, were abdominally seeded with an infectious amount, 10LD50, of HSV-1(Miyama strain). One hour later and over six days after the next day, once a day, Compound (5) referred to in Table 1 was continuously administrated to each animal via an abdominal route.

[5] = test system: influenza viruses (A/PR/8 strain); assay: microbe, parasite or virus in culture; format: cell-based, influenza virus A/PR/8; details: unidentified influenza virus, read-out: Antiviral Activity (ΔTCID50)
AIDS virus (HIV) = details: cited from earlier work
HSV-1 (KOS strain) = assay: microbe, parasite or virus in culture; format: cell-based, Herpes simplex virus type 1; details: Human alphaherpesvirus 1, Vero, read-out: Antiviral Activity (ΔTCID50)
HSV-2 (UW-268 strain) = assay: microbe, parasite or virus in culture; format: cell-based, Herpes simplex virus type 2; details: Human alphaherpesvirus 2, Vero, read-out: Antiviral Activity (ΔTCID50)
[6] = test system: vaccinia viruses (D1E strain); assay: microbe, parasite or virus in culture; format: cell-based; details: Orthopoxvirus vaccinia, Vero, read-out: Antiviral Activity (ΔTCID50)
[7] = Acute toxicity testing, oral, mice (LD50, Litchfield-Willcoxon); details: mouse, in vivo, ICR male mice, 7 days observation
Text: The compounds to be tested in the form of a 2% aqueous solution of Tween 80 were orally administrated to ICR male mice (weights: 24-30 g), five for each group.

[8] = test system: influenza viruses (A/PR/8 strain); assay: microbe, parasite or virus in culture; format: cell-based, influenza virus A/PR/8; details: unidentified influenza virus, PR/8, MDCK, read-out: Antiviral Activity (ΔTCID50)
[9] = Safety / cytotoxicity, general statement
herpes simplex virus = assay: Antiviral activity, general statement
[10] = Human alphaherpesvirus 1, 1 μg/ml, GMK cells
[11] = Human alphaherpesvirus 1, GMK cells

Structure (SMILES) | log reduction at 1 µg/mL (HSV-1 (Miyama strain) [1]; [10]) | log reduction at 5 µg/mL (HSV-1 (Miyama strain) [1]; [11]) | log reduction at 25 µg/mL (HSV-1 (Miyama strain) [1]; [11]) | magnitude of cytotoxicity (GMK cells [2]; 1 μg/ml) | log reduction at 1 µg/mL (HSV (UV-238 Strain)) | log reduction at 5 µg/mL (HSV (UV-238 Strain)) | log reduction at 25 µg/mL (HSV (UV-238 Strain)) | magnitude of cytotoxicity (GMK cells [2]; 5 μg/ml) | also measured
NC12CC3CC(CC(C3)C1)C2 [Amantadine] |  |  |  |  |  |  |  |  | efficacy against influenza A virus (influenza A virus): efficacious against influenza A virus; efficacy against influenza B virus (influenza B virus): not against influenza B virus
Nc1ncnc2c1ncn2[C@@H]1O[C@H](CO)[C@@H](O)[C@@H]1O [Ara-a, reference compound] | 1.2 | 1.5 | 2.5 | - | 1.1 | 1.7 | 2.6 |  | magnitude of cytotoxicity (GMK cells [3]; 1 μg/ml): -
CC1(C)[C@@H](OCCC(=O)O)CC[C@]2(C)[C@H]3CC=C4[C@@H]5C[C@@](C)(C(=O)O)CC[C@]5(C)CC[C@@]4(C)[C@]3(C)CC[C@@H]12 [Table 1, Comp. (18), disodium-3β-(2-carboxyethoxy)-18β-olean-12-en-30-oate] | 0.7 | 1.6 | 1.2 | - |  |  |  | - | 
COc1ccccc1N1CCN(C(=O)[C@@]2(C)CC[C@]3(C)CC[C@]4(C)C(=CC[C@@H]5[C@@]6(C)CC[C@H](OC(=O)/C=C\C(=O)O)C(C)(C)[C@@H]6CC[C@]54C)[C@@H]3C2)CC1 [Table 1, Comp. (5), 1-[3β-(3-carboxy-cis-propenoyloxy)-18β-olean-12-en-30-oyl]-4-(2-methoxyphenyl)piperazine] | 1 | 2.1 | 3.1 | - | 1.3 | 2.2 | 2.8 | - | Mean Survival Days (average ± standard error) (HSV-1 (Miyama strain) [4]; 5 mg/Kg): 7.9 ± 1.1 days; Mean Survival Days (average ± standard error) (HSV-1 (Miyama strain) [4]; 10 mg/Kg, p < 0.05 (t-Test)): 8.6 ± 0.7 days; Mean Survival Days (average ± standard error) (HSV-1 (Miyama strain) [4]; 20 mg/Kg, p < 0.001 (t-Test)): 11.2 ± 1.1 days; log reduction at 1 µg/mL ([5]; PR/8, MDCK): 0.8; log reduction at 5 µg/mL ([5]; PR/8, MDCK): 1.2; log reduction at 20 µg/mL ([5]; PR/8, MDCK): 2.1; magnitude of cytotoxicity (GMK cells [2]; 25 μg/ml): -; magnitude of cytotoxicity (GMK cells [3]; 1 μg/ml): -; magnitude of cytotoxicity (GMK cells [3]; 5 μg/ml): -; magnitude of cytotoxicity (GMK cells [3]; 25 μg/ml): -; magnitude of cytotoxicity (MDCK cells): -
CC1(C)[C@@H](OCC(=O)O)CC[C@]2(C)[C@H]3CC=C4[C@@H]5C[C@@](C)(C(=O)O)CC[C@]5(C)CC[C@@]4(C)[C@]3(C)CC[C@@H]12 [Table 1, Comp. (15), disodium-3β-carboxymethoxy-18β-olean-12-en-30-oate] | 0 | 0.3 | 1 | - |  |  |  | - | 
O=c1[nH]cnc2c1ncn2[C@H]1CC[C@@H](CO)O1 [DDI] |  |  |  |  |  |  |  |  | effect on AIDS (AIDS virus (HIV)): delay the development of AIDS, but cannot accelerate healing
CC(N)C12CC3CC(CC(C3)C1)C2 (racemic) [remantadine] |  |  |  |  |  |  |  |  | efficacy against influenza A virus (influenza A virus): efficacious against influenza A virus; efficacy against influenza B virus (influenza B virus): not against influenza B virus
CC1(C)[C@@H](OC(=O)CCC(=O)O)CC[C@]2(C)[C@H]3C(=O)C=C4[C@@H]5C[C@@](C)(C(=O)O)CC[C@]5(C)CC[C@@]4(C)[C@]3(C)CC[C@@H]12 [Carbenoxolone, reference compound] | 0.2 | 0.3 | 2.4 |  | 0.2 | 0.2 | 2.2 |  | 
COc1ccccc1N1CCN(C(=O)[C@@]2(C)CC[C@]3(C)CC[C@]4(C)C(=CC[C@@H]5[C@@]6(C)CC[C@H](O[C@@H]7O[C@H](CO)[C@@H](O)[C@H](O)[C@H]7O)C(C)(C)[C@@H]6CC[C@]54C)[C@@H]3C2)CC1 [Comp. Ex. 25, 1-(3β-(β-D-glucopyranosyloxy)-18β-olean-12-en-30-oyl)-4-(2-methoxyphenyl)piperazine] |  | > 3 | > 3.56 | - |  |  |  | - | log reduction at 1 µg/mL (HSV-1 (KOS strain)): 2.04; log reduction at 5 µg/mL (HSV-1 (KOS strain)): > 3.19; log reduction at 25 µg/mL (HSV-1 (KOS strain)): > 3.31; log reduction at 1 µg/mL (HSV-2 (UW-268 strain)): 1.85; log reduction at 5 µg/mL (HSV-2 (UW-268 strain)): 2.92; log reduction at 25 µg/mL (HSV-2 (UW-268 strain)): > 3.3; log reduction at 1 µg/mL [6]: 1.7; log reduction at 5 µg/mL [6]: 2.67; log reduction at 25 µg/mL [6]: 2.53; log reduction at 1 µg/mL (HSV-1 (Miyama strain) [1]; Human alphaherpesvirus 1, GMK): 1.86; magnitude of cytotoxicity (GMK cells [2]; 25 μg/ml): ±; LD50 at 168 h [7]: > 1000 mg/kg; log reduction at 1 µg/mL [8]: 1.31; log reduction at 5 µg/mL [8]: 1.86; log reduction at 25 µg/mL [8]: 2.22
COc1ccccc1N1CCN(C(=O)[C@@]2(C)CC[C@]3(C)CC[C@]4(C)C(=CC[C@@H]5[C@@]6(C)CC[C@H](O)C(C)(C)[C@@H]6CC[C@]54C)[C@@H]3C2)CC1 [Table 1, Comp. (9), 1-(3β-hydroxy-18β-olean-12-en-30-oyl)-4-(2-methoxyphenyl) piperazine] | 1.3 | 1.2 |  | - | 0.7 | 1.3 | 2.5 |  | log reduction at 1 µg/mL ([5]; PR/8, MDCK): 0.5; log reduction at 5 µg/mL ([5]; PR/8, MDCK): 1; log reduction at 20 µg/mL ([5]; PR/8, MDCK): 1.3; magnitude of cytotoxicity (GMK cells [3]; 1 μg/ml): -
COc1ccccc1N1CCN(C(=O)[C@@]2(C)CC[C@]3(C)CC[C@]4(C)C(=CC[C@@H]5[C@@]6(C)CC[C@H](OC(=O)CCC(=O)O)C(C)(C)[C@@H]6CC[C@]54C)[C@@H]3C2)CC1 [Table 1, Comp. (13), 1-[3β-(3-carboxypropanoyloxy)-18β-olean-12-en-30-oyl]-4-(2-methoxyphenyl)piperazine] | 0.8 | 2.6 | 2.5 | - | 0.9 | 1.4 | 2.5 | - | safety / cytotoxic action [9]: of greatly safety; log reduction at 1 µg/mL ([5]; PR/8, MDCK): 0.4; log reduction at 5 µg/mL ([5]; PR/8, MDCK): 0.6; log reduction at 20 µg/mL ([5]; PR/8, MDCK): 1.5; antiviral activity (herpes simplex virus): a particularly high antiviral activity; magnitude of cytotoxicity (GMK cells [3]; 1 μg/ml): -; magnitude of cytotoxicity (GMK cells [3]; 5 μg/ml): -
NC(=O)c1ncn([C@@H]2O[C@H](CO)[C@@H](O)[C@H]2O)n1 [Ribavirin, reference compound] |  |  |  |  |  |  |  |  | log reduction at 1 µg/mL ([5]; PR/8, 1 μg/ml, MDCK cells): 0.8; log reduction at 5 µg/mL ([5]; PR/8, 5 μg/ml, MDCK cells): 1.8; log reduction at 20 µg/mL ([5]; PR/8, 20 μg/ml, MDCK cells): 3.2; magnitude of cytotoxicity (MDCK cells; 1 μg/ml): -; magnitude of cytotoxicity (MDCK cells; 5 μg/ml): -; magnitude of cytotoxicity (MDCK cells; 20 μg/ml): -
Cc1cn([C@H]2C[C@H](N=[N+]=[N-])[C@@H](CO)O2)c(=O)[nH]c1=O [AZT] |  |  |  |  |  |  |  |  | effect on AIDS (AIDS virus (HIV)): delay the development of AIDS, but cannot accelerate healing
CC(C)=CCCC(C)=CCCC(C)=CCN1CCN(C(=O)[C@@]2(C)CC[C@]3(C)CC[C@]4(C)C(=CC[C@@H]5[C@@]6(C)CC[C@H](OC(=O)/C=C\C(=O)O)C(C)(C)[C@@H]6CC[C@]54C)[C@@H]3C2)CC1 [Table 1, Comp. (10)] | 0.7 | 2 | 1.9 | - |  |  |  |  | 
